Laboratory results taken from patent publication US11377448B2, “Crystalline sodium salt of 5-methyl-(6S)-tetrahydrofolic acid” (priority 2017, dated 2022).

Key:
[1] = purified/de-ionized water, room temperature, agitated and briefly sonicated
Description: The measurement of the kinetic solubility was conducted as described in the experimental part.
50 mg of crystalline sodium salt of 5-methyl-(6S)-tetrahydrofolic acid (according to Example 1) is weighed into a 4 ml glass vial with screw cap. Then 0.5 ml of purified/de-ionized water is added.
2.535 ml of purified/de-ionized water is added to the solid using an adjustable volumetric pipette. The mixture is vigorously agitated at room temperature and briefly sonicated.

[2] = Long-term stability at 25° C./60% rh, content by HPLC; conditions: for 5-methyl-(6S)-tetrahydrofolic acid (% w/w) / Pyrazino-s-triazine derivative of 4α-hydroxy-5-methyl-THF (MeFox) (% w/w) / 5-methyl-(6S)-tetrahydrofolic acid (% rel.): 25° C./60% rh; for Pyrazino-s-triazine derivative of 4α-hydroxy-5-methyl-THF (MeFox) (% w/w): major degradation product; for 5-methyl-(6S)-tetrahydrofolic acid (% rel.): relative to initial value
Description: (§1) Amorphous monosodium salt of 5-methyl-(6S)-tetrahydrofolic acid prepared according to Reference Example 6, crystalline calcium salt of 5-methyl-(6S)-tetrahydrofolic acid, prepared according to literature procedures (EP 1 044 975 B1) and crystalline sodium salt of 5-methyl-(6S)-tetrahydrofolic acid, prepared as disclosed in Example 1, were stored at 25° C./60% rh. The content of 5-methyl-(6S)-tetrahydrofolic acid remaining in the samples was measured by HPLC at periodic intervals (% w/w). The content of 5-methyl-(6S)-tetrahydrofolic acid remaining was also compared to the initial value at the time of preparation (% rel.). Additionally the content of the pyrazino-s-triazine derivative of 4α-hydroxy-5-methyl-THF (MeFox), a major degradation product, was measured by HPLC at periodic intervals and disclosed as absolute values (% w/w).

[3] = Long-term stability at 40° C./75% rh, content by HPLC; type: physicochemical; conditions: for Pyrazino-s-triazine derivative of 4α-hydroxy-5-methyl-THF (MeFox) (% w/w): major degradation product; for 5-methyl-(6S)-tetrahydrofolic acid (% rel.): relative to initial value
Description: as §1, with “40° C./75%” for “25° C./60%”, “sample” for “samples”

SMILES	solubility (kinetic solubility) in water [1]	5-methyl-(6S)-tetrahydrofolic acid (% w/w) ([2]; 0 months)	Pyrazino-s-triazine derivative of 4α-hydroxy-5-methyl-THF (MeFox) (% w/w) ([2]; 0 months)	5-methyl-(6S)-tetrahydrofolic acid (% rel.) ([2]; 0 months)	5-methyl-(6S)-tetrahydrofolic acid (% w/w) ([2]; 3 months)	Pyrazino-s-triazine derivative of 4α-hydroxy-5-methyl-THF (MeFox) (% w/w) ([2]; 3 months)	5-methyl-(6S)-tetrahydrofolic acid (% rel.) ([2]; 3 months)	5-methyl-(6S)-tetrahydrofolic acid (% w/w) ([2]; 6 months)	Pyrazino-s-triazine derivative of 4α-hydroxy-5-methyl-THF (MeFox) (% w/w) ([2]; 6 months)	5-methyl-(6S)-tetrahydrofolic acid (% rel.) ([2]; 6 months)	5-methyl-(6S)-tetrahydrofolic acid (% w/w) ([2]; 9 months)	Pyrazino-s-triazine derivative of 4α-hydroxy-5-methyl-THF (MeFox) (% w/w) ([2]; 9 months)	5-methyl-(6S)-tetrahydrofolic acid (% rel.) ([2]; 9 months)	5-methyl-(6S)-tetrahydrofolic acid (% w/w) ([3]; 0 months)	Pyrazino-s-triazine derivative of 4α-hydroxy-5-methyl-THF (MeFox) (% w/w) ([3]; 0 months)	5-methyl-(6S)-tetrahydrofolic acid (% rel.) ([3]; 0 months)	5-methyl-(6S)-tetrahydrofolic acid (% w/w) ([3]; 3 months)	Pyrazino-s-triazine derivative of 4α-hydroxy-5-methyl-THF (MeFox) (% w/w) ([3]; 3 months)	5-methyl-(6S)-tetrahydrofolic acid (% rel.) ([3]; 3 months)	5-methyl-(6S)-tetrahydrofolic acid (% w/w) ([3]; 6 months)	further results
CN1c2c(nc(N)[nH]c2=O)NC[C@@H]1CNc1ccc(C(=O)N[C@@H](CCC(=O)[O-])C(=O)[O-])cc1.[Na+].[Na+] [sodium salt of 5-methyl-(6S)-tetrahydrofolic acid]	greater than 100 mg per 1 ml of water	82.3	0.07	100.0	80.0	1.01	97.3	78.6	1.31	95.5	74.7	1.42	90.8	82.3	0.07	100.0	78.6	1.52	95.6	77.3	stability over a long period of time compared to the crystalline calcium salt ([2]; summary of Tables 1 to 4 (25° C./60% rh and 40° C./75% rh)): comparable stability; Pyrazino-s-triazine derivative of 4α-hydroxy-5-methyl-THF (MeFox) (% w/w) ([3]; 6 months): 1.69 % w/w; 5-methyl-(6S)-tetrahydrofolic acid (% rel.) ([3]; 6 months): 94.0 % rel.; 5-methyl-(6S)-tetrahydrofolic acid (% w/w) ([3]; 9 months): 77.9 % w/w; Pyrazino-s-triazine derivative of 4α-hydroxy-5-methyl-THF (MeFox) (% w/w) ([3]; 9 months): 1.51 % w/w; 5-methyl-(6S)-tetrahydrofolic acid (% rel.) ([3]; 9 months): 94.7 % rel.
CN1c2c(nc(N)[nH]c2=O)NC[C@@H]1CNc1ccc(C(=O)N[C@@H](CCC(=O)[O-])C(=O)O)cc1.[Na+] [5-methyl-(6S)-tetrahydrofolic acid monosodium salt]		84.9	0.43	100.0	60.6	2.60	71.3	63.2	2.75	74.5				84.9	0.43	100.0	61.6	2.79	72.6		
CN1c2c([nH]c(N)nc2=O)NC[C@@H]1CNc1ccc(C(=O)N[C@@H](CCC(=O)[O-])C(=O)[O-])cc1.[Ca+2] [calcium salt of 5-methyl-(6S)-tetrahydrofolic acid]	smaller than 10 mg per 1 ml of water	80.7	0.20	100.0	79.0	0.84	97.9	77.7	0.90	96.3	78.5	0.85	97.3	80.7	0.20	100.0	78.5	1.01	97.2	78.0	5-methyl-(6S)-tetrahydrofolic acid (% w/w) ([2]; 12 months): 77.9 % w/w; Pyrazino-s-triazine derivative of 4α-hydroxy-5-methyl-THF (MeFox) (% w/w) ([2]; 12 months): 0.86 % w/w; 5-methyl-(6S)-tetrahydrofolic acid (% rel.) ([2]; 12 months): 96.5 % rel.; Pyrazino-s-triazine derivative of 4α-hydroxy-5-methyl-THF (MeFox) (% w/w) ([3]; 6 months): 0.96 % w/w; 5-methyl-(6S)-tetrahydrofolic acid (% rel.) ([3]; 6 months): 96.6 % rel.; 5-methyl-(6S)-tetrahydrofolic acid (% w/w) ([3]; 9 months): 78.8 % w/w; Pyrazino-s-triazine derivative of 4α-hydroxy-5-methyl-THF (MeFox) (% w/w) ([3]; 9 months): 0.93 % w/w; 5-methyl-(6S)-tetrahydrofolic acid (% rel.) ([3]; 9 months): 97.6 % rel.; 5-methyl-(6S)-tetrahydrofolic acid (% w/w) ([3]; 12 months): 77.8 % w/w; Pyrazino-s-triazine derivative of 4α-hydroxy-5-methyl-THF (MeFox) (% w/w) ([3]; 12 months): 0.95 % w/w; 5-methyl-(6S)-tetrahydrofolic acid (% rel.) ([3]; 12 months): 96.3 % rel.
